Results reported in patent US20190211020A1 (Agency for Science, Technology and Research, priority 2012, published 2019).
Like-named read-outs stand apart in the source and are kept apart here.

System: eIF4E Ser209 phosphorylation in Hela cells
Test: MNK cell-based assay (AlphaScreen SureFire, eIF4E Ser209 phosphorylation)
Settings: read-out: IC50 Hela
Source text: It has been reported that Ser209 of eIF4E is solely phosphorylated by the MNK enzymes. The ability of compounds to inhibit this process in Hela cells was investigated using the AlphaScreen SureFire® assay platform from Perkin Elmer (Waltham, Mass.). eIF4E phosphorylated on Ser209 is recognized by two antibodies, the first which is fused to a streptavidin coated donor bead binds to an epitope away from Ser209, the second which is fused to a protein A conjugated acceptor bead binds to phosphorylated Ser209. The phosphorylation of eIF4E on Ser209 brings the two antibodies into close proximity and when excited by a laser a singlet oxygen is released by the donor bead which excites the acceptor bead resulting in the emission of light. This enables the monitoring of eIF4E Ser209 phosphorylation and its inhibition in a cellular context.
Hela cells were seeded into microtitre plates (30,000 cells per well) in 100 μl of culture medium and incubated at 37° C. for 24 hours. The media was then removed by aspiration and the cells resuspended in 50 μl of serum free medium containing the test compound and incubated at 37° C. for 2 hours. The culture medium was again removed by aspiration and the cells resuspended in lysis buffer (provided in Perkin Elmer SureFire® Assay Kit). After agitation at 350 rpm for 20 minutes at 22° C., 4 μl was transferred to a 384 well OptiPlate™ (Perkin Elmer, Waltham, Mass.). To each well was added 5 μl of acceptor mix; the plate was sealed and agitated gently at 22° C. for 2 hours. Then, in subdued light, 2 μl of donor mix was added to each well, the plate was sealed, wrapped in aluminum foil and agitated gently at 22° C. for 2 hours. Emission was measured using the EnVision® plate reader (Perkin Elmer, Waltham, Mass.).
Inhibition constants (IC50) were determined by plotting AlphaScreen signal versus log compound concentration and fitting with a non-linear regression algorithm using GraphPad Prism (GraphPad Software Inc.).

[1] = Homo sapiens, eIF4E Ser209 phosphorylation, Hela cells, 2 hours
[2] = eIF4E Ser209 phosphorylation, Hela cells, 2 hours

| SMILES | IC50 [1] [nM] | further results |
| --- | --- | --- |
| CC1(O)CCN(C(=O)c2ccc(-c3ccc4ncc(-c5ccc(C#N)cc5)n4c3)cc2)CC1 [Example 106, 4-(6-(4-(4-hydroxy-4-methylpiperidine-1-carbonyl)phenyl)imidazo[1,2-a]pyridin-3-yl)benzonitrile] | < 1000 | – |
| N#Cc1ccc(-c2cnc3ccc(-c4ccc(C(=O)N5CCCNCC5)cc4)cn23)cc1 [Example 107, 4-(6-(4-(1,4-diazepane-1-carbonyl)phenyl)imidazo [1,2-a]pyridin-3-yl)benzonitrile] | < 1000 | – |
| N#Cc1ccc(-c2cnc3ccc(-c4ccc(C(=O)N5CCC(N)CC5)cc4)cn23)cc1 [Example 109, 4-(6-(4-(4-aminopiperidine-1-carbonyl)phenyl)imidazo[1,2-a]pyridin-3-yl)benzonitrile] | < 1000 | – |
| CS(=O)(=O)NC1CCN(C(=O)c2ccc(-c3ccc4ncc(-c5ccc(C#N)cc5)n4c3)cc2)CC1 [Example 111, N-(1-(4-(3-(4-cyanophenyl)imidazo[1,2-a]pyridin-6-yl)benzoyl)piperidin-4-yl)methanesulfonamide] | < 1000 | – |
| CN(C)C1CCN(C(=O)c2ccc(-c3ccc4ncc(-c5ccc(C#N)cc5)n4c3)cc2)CC1 [Example 112, 4-(6-(4-(4-(dimethylamino)piperidine-1-carbonyl)phenyl)imidazo[1,2-a]pyridin-3-yl)benzonitrile] | < 1000 | – |
| CCC1(N)CCN(C(=O)c2ccc(-c3ccc4ncc(-c5ccc(C#N)cc5)n4c3)cc2)CC1 [Example 113, 4-(6-(4-(4-amino-4-ethylpiperidine-1-carbonyl)phenyl)imidazo [1,2-a]pyridin-3-yl)benzonitrile] | < 1000 | – |
| N#Cc1ccc(-c2cnc3ccc(-c4ccc(C(=O)NCC(=O)N5CCOCC5)cc4)cn23)cc1 [Example 115, 4-(3-(4-cyanophenyl)imidazo[1,2-a]pyridin-6-yl)-N-(2-morpholino-2-oxoethyl)benzamide] | < 1000 | – |
| N#Cc1ccc(-c2cnc3ccc(-c4ccc(C(=O)NCCN5CCOCC5)cc4)cn23)cc1 [Example 116, 4-(3-(4-cyanophenyl)imidazo[1,2-a]pyridin-6-yl)-N-(2-morpholinoethyl)benzamide] | < 1000 | – |
| N#Cc1ccc(-c2cnc3ccc(-c4ccc(C(=O)N5CCC6(CCCCN6)CC5)cc4)cn23)cc1 [Example 117, 4-(6-(4-(1,9-diazaspiro[5.5]undecane-9-carbonyl)phenyl)imidazo[1,2-a]pyridin-3-yl)benzonitrile] | < 1000 | – |
| CC(=O)N1CCCCC12CCN(C(=O)c1ccc(-c3ccc4ncc(-c5ccc(C#N)cc5)n4c3)cc1)CC2 [Example 118, 4-(6-(4-(1-acetyl-1,9-diazaspiro[5.5]undecane-9-carbonyl)phenyl)imidazo[1,2-a]pyridin-3-yl)benzonitrile] | < 1000 | – |
| CN1CCCCC12CCN(C(=O)c1ccc(-c3ccc4ncc(-c5ccc(C#N)cc5)n4c3)cc1)CC2 [Example 119, 4-(6-(4-(1-methyl-1,9-diazaspiro [5.5]undecane-9-carbonyl)phenyl)imidazo[1,2-a]pyridin-3-yl)benzonitrile] | < 1000 | – |
| CN(C(=O)c1ccc(-c2ccc3ncc(-c4ccc(C#N)cc4)n3c2)cc1)c1ccncc1 [Example 122, 4-(3-(4-cyanophenyl)imidazo[1,2-a]pyridin-6-yl)-N-methyl-N-(pyridin-4-yl)benzamide] | < 1000 | – |
| N#Cc1ccc(-c2cnc3ccc(-c4ccc(C(=O)N5CCC(CN)CC5)cc4)cn23)cc1 [Example 123, 4-(6-(4-(4-(aminomethyl)piperidine-1-carbonyl)phenyl)imidazo[1,2-a]pyridin-3-yl)benzonitrile] | < 1000 | – |
| N#Cc1ccc(-c2cnc3ccc(-c4ccc(C(=O)N5CCC(CCN)CC5)cc4)cn23)cc1 [Example 124, 4-(6-(4-(4-(2-aminoethyl)piperidine-1-carbonyl)phenyl)imidazo[1,2-a]pyridin-3-yl)benzonitrile] | < 1000 | – |
| Cc1cc2ncc(-c3ccc(C#N)cc3)n2cc1-c1ccc(C(=O)N2CCC(C)(N)CC2)cc1 [Example 137, 4-(6-(4-(4-amino-4-methylpiperidine-1-carbonyl)phenyl)-7-methylimidazo[1,2-a]pyridin-3-yl)benzonitrile] | – | IC50 (Homo sapiens, HeLa, 2 h): < 1000 nM |
| CN1CCN(C(=O)c2ccc(-c3ccc4ncc(-c5ccc(C#N)cc5)n4c3)cc2O)CC1 [Example 143] | – | IC50 [2]: < 1000 nM |
| CN1CCN(C(=O)c2ccc(-c3ccc4ncc(-c5ccc(C#N)cc5)n4c3)c(O)c2)CC1 [Example 144] | – | IC50 [2]: < 1000 nM |

Now from value to compound, other results behind:

| IC50 [1] [nM] | SMILES | further results |
| --- | --- | --- |
| < 1000 | N#Cc1ccc(-c2cnc3ccc(-c4ccc(C(=O)N5CCN(C(=O)c6ccccc6)CC5)cc4)cn23)cc1 [Example 126, 4-(6-(4-(4-benzoylpiperazine-1-carbonyl)phenyl)imidazo[1,2-a]pyridin-3-yl)benzonitrile] | – |
| < 1000 | N#Cc1ccc(-c2cnc3ccc(-c4ccc(C(=O)N5CCN(Cc6ccc(C(N)=O)cc6)CC5)cc4)cn23)cc1 [Example 129, 4-((4-(4-(3-(4-cyanophenyl)imidazo[1,2-a]pyridin-6-yl)benzoyl)piperazin-1-yl)methyl)benzamide] | – |
| < 1000 | CN1CCN(C(=O)c2ccc(-c3ccc4ncc(-c5ccc(C#N)cc5)n4c3)cc2)CC1=O [Example 130, 4-(6-(4-(4-methyl-3-oxopiperazine-1-carbonyl)phenyl)imidazo[1,2-a]pyridin-3-yl)benzonitrile] | – |
| < 1000 | N#Cc1ccc(-c2cnc3ccc(-c4ccc(C(=O)N5CCC(N6CCOCC6)CC5)cc4)cn23)cc1 [Example 134, 4-(6-(4-(4-morpholinopiperidine-1-carbonyl)phenyl)imidazo[1,2-a]pyridin-3-yl)benzonitrile] | – |
| < 1000 | Cc1nnc(C2(C)CCN(C(=O)c3ccc(-c4ccc5ncc(-c6ccc(C#N)cc6)n5c4)cc3)CC2)o1 [Example 135, 4-(6-(4-(4-methyl-4-(5-methyl-1,3,4-oxadiazol-2-yl)piperidine-1-carbonyl)phenyl)imidazo [1,2-a]pyridin-3-yl)benzonitrile] | – |
| < 1000 | Cc1cc2ncc(-c3ccc(C#N)cc3)n2cc1-c1ccc(C(=O)N2CCN(C)CC2)cc1 [Example 138, 4-(7-methyl-6-(4-(4-methylpiperazine-1-carbonyl)phenyl)imidazo[1,2-a]pyridin-3-yl)benzonitrile] | – |
| < 1000 | CN1CCN(C(=O)c2ccc(-c3ccc4ncc(-c5ccc(C#N)cc5)n4c3)c(F)c2)CC1 [Example 140, 4-(6-(2-fluoro-4-(4-methylpiperazine-1-carbonyl)phenyl)imidazo [1,2-a]pyridin-3-yl)benzonitrile] | – |
| < 1000 | CN1CCN(C(=O)c2ccc(-c3ccc4ncc(-c5ccc(C#N)cc5)n4c3)cc2Cl)CC1 [Example 141, 4-(6-(3-chloro-4-(4-methylpiperazine-1-carbonyl)phenyl)imidazo[1,2-a]pyridin-3-yl)benzonitrile] | – |
| < 1000 | CN1CCN(C(=O)c2ccc(-c3ccc4ncc(-c5ccc(C#N)cc5)n4c3)cc2F)CC1 [Example 142, 4-(6-(3-fluoro-4-(4-methylpiperazine-1-carbonyl)phenyl)imidazo[1,2-a]pyridin-3-yl)benzonitrile] | – |
| < 1000 | CN1CCN(C(=O)c2ccc(-c3ccc4ncc(-c5ccc(C#N)cc5)n4c3)cc2C(F)(F)F)CC1 [Example 145, 4-(6-(4-(4-methylpiperazine-1-carbonyl)-3-(trifluoromethyl)phenyl)imidazo[1,2-a]pyridin-3-yl)benzonitrile] | – |
| < 1000 | CN1CCN(C(=O)c2ccc(-c3ccc4ncc(-c5ccc(C#N)cc5)n4c3)cc2N)CC1 [Example 146, 4-(6-(3-amino-4-(4-methylpiperazine-1-carbonyl)phenyl)imidazo [1,2-a]pyridin-3-yl)benzonitrile] | – |
| < 1000 | CN1CCN(C(=O)c2ccc(-c3ccc4ncc(-c5ccc(C#N)cc5)n4c3)cc2N(C)C)CC1 [Example 147, 4-(6-(3-(dimethylamino)-4-(4-methylpiperazine-1-carbonyl)phenyl)imidazo[1,2-a]pyridin-3-yl)benzonitrile] | – |
| < 1000 | CC(=O)Nc1cc(-c2ccc3ncc(-c4ccc(C#N)cc4)n3c2)ccc1C(=O)N1CCN(C)CC1 [Example 149, N-(5-(3-(4-cyanophenyl)imidazo[1,2-a]pyridin-6-yl)-2-(4-methylpiperazine-1-carbonyl)phenyl)acetamide] | – |
| < 1000 | CNc1cc(-c2ccc3ncc(-c4ccc(C#N)cc4)n3c2)ccc1C(=O)N1CCN(C)CC1 [Example 150, 4-(6-(3-(methylamino)-4-(4-methylpiperazine-1-carbonyl)phenyl)imidazo [1,2-a]pyridin-3-yl)benzonitrile] | – |
| < 1000 | CNc1cc(-c2ccc3ncc(-c4ccc(C#N)cc4)n3c2)ccc1C(=O)N1CCOCC1 [Example 151, 4-(6-(3-(methylamino)-4-(morpholine-4-carbonyl)phenyl)imidazo[1,2-a]pyridin-3-yl)benzonitrile] | – |
| < 1000 | CN1CCN(C(=O)c2ccc(-c3ccc4ncc(-c5ccc(C#N)cc5)n4c3)c(Cl)c2)CC1 [Example 153] | – |
